Peptide text beside a SMILES is read from it.
How the values were obtained:
[1] = molecular target: T1, Bcr/Abl fusion protein (Homo sapiens) (UniProt P00519+P11274); experiment: Peptide phosphorylation by Bcr-Abl protein tyrosine kinase at 25 degree for 30 min in a cell-free system; type: protein assay
[2] = molecular target: Tyrosine-protein kinase ABL1 (Homo sapiens) (UniProt P00519); experiment: Peptide phosphorylation by c-Abl protein tyrosine kinase at 25 degree for 30 min in a cell-free system
[3] = molecular target: T1, Bcr/Abl fusion protein (Homo sapiens); experiment: Ratio of peptide phosphorylation by Bcr-Abl and c-Abl protein tyrosine kinases; type: protein assay
[4] = molecular target: T1, Bcr/Abl fusion protein (Homo sapiens); experiment: Vmax/Km value for peptide phosphorylation by Bcr-Abl protein tyrosine kinase; type: protein assay
[5] = molecular target: Tyrosine-protein kinase ABL1 (Homo sapiens) (UniProt P00519); experiment: Vmax/Km value for peptide phosphorylation by c-Abl protein tyrosine kinase
[6] = tested on: CC[C@H](C)[C@H](NC(=O)[C@H](CCC(=O)O)NC(=O)[C@@H](N)CCC(=O)O)C(=O)N[C@@H](Cc1ccc(O)cc1)C(=O)N[C@@H](C)C(=O)N[C@@H](CCC(=O)O)C(=O)N[C@@H](Cc1c[nH]c2ccccc12)C(=O)N[C@@H](Cc1ccccc1)C(=O)O; experiment: (§1) Vmax value for peptide phosphorylation by Bcr-Abl protein tyrosine kinase; type: protein assay
[7] = tested on: CC[C@H](C)[C@H](NC(=O)[C@H](CCC(=O)O)NC(=O)[C@@H](N)CCC(=O)O)C(=O)N[C@@H](Cc1ccc(O)cc1)C(=O)N[C@@H](CC(=O)O)C(=O)N[C@@H](Cc1ccc(O)cc1)C(=O)N[C@@H](C)C(=O)N[C@@H](Cc1ccc(O)cc1)C(=O)O; experiment: as §1; type: protein assay
[8] = tested on: CC[C@H](C)[C@H](NC(=O)[C@H](CCC(=O)O)NC(=O)[C@@H](N)CCC(=O)O)C(=O)N[C@@H](Cc1ccc(O)cc1)C(=O)N[C@@H](CCC(=O)O)C(=O)N[C@@H](CCC(=O)O)C(=O)N1CCC[C@H]1C(=O)N[C@@H](Cc1ccc(O)cc1)C(=O)O; experiment: as §1; type: protein assay
[9] = tested on: CC[C@H](C)[C@H](NC(=O)[C@H](CCC(=O)O)NC(=O)[C@@H](N)CCC(=O)O)C(=O)N[C@@H](Cc1ccc(O)cc1)C(=O)N[C@@H](Cc1ccc(O)cc1)C(=O)N[C@@H](Cc1ccc(O)cc1)C(=O)N[C@H](C(=O)N[C@@H](Cc1c[nH]cn1)C(=O)O)C(C)C; experiment: as §1; type: protein assay
[10] = tested on: CC[C@H](C)[C@H](NC(=O)[C@H](CCC(=O)O)NC(=O)[C@H](CC(=O)O)NC(=O)[C@H](Cc1ccc(O)cc1)NC(=O)[C@@H](NC(=O)[C@H](CCC(=O)O)NC(=O)[C@@H](N)CCC(=O)O)[C@@H](C)CC)C(=O)N[C@@H](Cc1ccc(O)cc1)C(=O)O; experiment: as §1; type: protein assay
[11] = tested on: CC[C@H](C)[C@H](NC(=O)[C@H](CCCN=C(N)N)NC(=O)[C@@H](N)CCC(=O)O)C(=O)N[C@@H](Cc1ccc(O)cc1)C(=O)N[C@@H](C)C(=O)N[C@@H](CCCN=C(N)N)C(=O)N[C@H](C(=O)N[C@@H](CCCCN)C(=O)O)[C@@H](C)O; experiment: as §1; type: protein assay
[12] = tested on: CC[C@H](C)[C@H](NC(=O)[C@H](CCC(=O)O)NC(=O)[C@@H](N)CCC(=O)O)C(=O)N[C@@H](Cc1ccc(O)cc1)C(=O)N[C@@H](C)C(=O)N[C@@H](CCC(=O)O)C(=O)N[C@@H](Cc1c[nH]c2ccccc12)C(=O)N[C@@H](Cc1ccccc1)C(=O)O; experiment: (§2) Km value for peptide phosphorylation by Bcr-Abl protein tyrosine kinase; type: protein assay
[13] = tested on: CC[C@H](C)[C@H](NC(=O)[C@H](CCC(=O)O)NC(=O)[C@@H](N)CCC(=O)O)C(=O)N[C@@H](Cc1ccc(O)cc1)C(=O)N[C@@H](CC(=O)O)C(=O)N[C@@H](Cc1ccc(O)cc1)C(=O)N[C@@H](C)C(=O)N[C@@H](Cc1ccc(O)cc1)C(=O)O; experiment: as §2; type: protein assay
[14] = tested on: CC[C@H](C)[C@H](NC(=O)[C@H](CCC(=O)O)NC(=O)[C@@H](N)CCC(=O)O)C(=O)N[C@@H](Cc1ccc(O)cc1)C(=O)N[C@@H](CCC(=O)O)C(=O)N[C@@H](CCC(=O)O)C(=O)N1CCC[C@H]1C(=O)N[C@@H](Cc1ccc(O)cc1)C(=O)O; experiment: as §2; type: protein assay
[15] = tested on: CC[C@H](C)[C@H](NC(=O)[C@H](CCC(=O)O)NC(=O)[C@@H](N)CCC(=O)O)C(=O)N[C@@H](Cc1ccc(O)cc1)C(=O)N[C@@H](Cc1ccc(O)cc1)C(=O)N[C@@H](Cc1ccc(O)cc1)C(=O)N[C@H](C(=O)N[C@@H](Cc1c[nH]cn1)C(=O)O)C(C)C; experiment: as §2; type: protein assay
[16] = tested on: CC[C@H](C)[C@H](NC(=O)[C@H](CCC(=O)O)NC(=O)[C@H](CC(=O)O)NC(=O)[C@H](Cc1ccc(O)cc1)NC(=O)[C@@H](NC(=O)[C@H](CCC(=O)O)NC(=O)[C@@H](N)CCC(=O)O)[C@@H](C)CC)C(=O)N[C@@H](Cc1ccc(O)cc1)C(=O)O; experiment: as §2; type: protein assay
[17] = tested on: CC[C@H](C)[C@H](NC(=O)[C@H](CCCN=C(N)N)NC(=O)[C@@H](N)CCC(=O)O)C(=O)N[C@@H](Cc1ccc(O)cc1)C(=O)N[C@@H](C)C(=O)N[C@@H](CCCN=C(N)N)C(=O)N[C@H](C(=O)N[C@@H](CCCCN)C(=O)O)[C@@H](C)O; experiment: as §2; type: protein assay

T1 sequence (P00519 whole entry, looked up, the tested form may be a part): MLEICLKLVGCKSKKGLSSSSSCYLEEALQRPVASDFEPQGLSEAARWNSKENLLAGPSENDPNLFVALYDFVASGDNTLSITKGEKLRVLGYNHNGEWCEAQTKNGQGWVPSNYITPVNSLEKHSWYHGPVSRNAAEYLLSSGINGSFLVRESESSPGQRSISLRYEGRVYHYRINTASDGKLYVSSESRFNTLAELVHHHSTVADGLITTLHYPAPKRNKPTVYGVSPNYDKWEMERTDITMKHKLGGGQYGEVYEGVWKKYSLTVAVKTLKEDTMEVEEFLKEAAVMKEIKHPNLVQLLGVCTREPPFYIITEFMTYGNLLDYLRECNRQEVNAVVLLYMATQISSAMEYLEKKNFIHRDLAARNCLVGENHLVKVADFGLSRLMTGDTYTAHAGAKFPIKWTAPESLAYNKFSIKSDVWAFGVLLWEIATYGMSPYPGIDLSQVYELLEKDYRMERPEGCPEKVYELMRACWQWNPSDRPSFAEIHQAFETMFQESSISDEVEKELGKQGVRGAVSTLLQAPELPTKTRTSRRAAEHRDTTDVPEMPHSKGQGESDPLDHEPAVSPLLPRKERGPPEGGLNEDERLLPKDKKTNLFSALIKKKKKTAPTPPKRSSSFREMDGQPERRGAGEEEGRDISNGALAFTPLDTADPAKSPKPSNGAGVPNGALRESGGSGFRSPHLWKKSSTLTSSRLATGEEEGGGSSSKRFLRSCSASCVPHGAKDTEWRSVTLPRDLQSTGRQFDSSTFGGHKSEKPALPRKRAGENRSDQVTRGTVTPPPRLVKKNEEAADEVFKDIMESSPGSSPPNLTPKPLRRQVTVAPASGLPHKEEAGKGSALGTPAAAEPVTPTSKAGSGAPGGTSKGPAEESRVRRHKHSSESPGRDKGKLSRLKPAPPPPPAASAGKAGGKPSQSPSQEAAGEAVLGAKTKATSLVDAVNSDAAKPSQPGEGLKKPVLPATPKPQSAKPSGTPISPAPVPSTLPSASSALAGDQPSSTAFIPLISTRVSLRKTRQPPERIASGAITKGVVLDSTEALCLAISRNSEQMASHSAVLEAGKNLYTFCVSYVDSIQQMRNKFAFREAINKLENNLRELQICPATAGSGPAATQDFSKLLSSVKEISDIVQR
T1 sequence (P11274 whole entry, looked up, the tested form may be a part): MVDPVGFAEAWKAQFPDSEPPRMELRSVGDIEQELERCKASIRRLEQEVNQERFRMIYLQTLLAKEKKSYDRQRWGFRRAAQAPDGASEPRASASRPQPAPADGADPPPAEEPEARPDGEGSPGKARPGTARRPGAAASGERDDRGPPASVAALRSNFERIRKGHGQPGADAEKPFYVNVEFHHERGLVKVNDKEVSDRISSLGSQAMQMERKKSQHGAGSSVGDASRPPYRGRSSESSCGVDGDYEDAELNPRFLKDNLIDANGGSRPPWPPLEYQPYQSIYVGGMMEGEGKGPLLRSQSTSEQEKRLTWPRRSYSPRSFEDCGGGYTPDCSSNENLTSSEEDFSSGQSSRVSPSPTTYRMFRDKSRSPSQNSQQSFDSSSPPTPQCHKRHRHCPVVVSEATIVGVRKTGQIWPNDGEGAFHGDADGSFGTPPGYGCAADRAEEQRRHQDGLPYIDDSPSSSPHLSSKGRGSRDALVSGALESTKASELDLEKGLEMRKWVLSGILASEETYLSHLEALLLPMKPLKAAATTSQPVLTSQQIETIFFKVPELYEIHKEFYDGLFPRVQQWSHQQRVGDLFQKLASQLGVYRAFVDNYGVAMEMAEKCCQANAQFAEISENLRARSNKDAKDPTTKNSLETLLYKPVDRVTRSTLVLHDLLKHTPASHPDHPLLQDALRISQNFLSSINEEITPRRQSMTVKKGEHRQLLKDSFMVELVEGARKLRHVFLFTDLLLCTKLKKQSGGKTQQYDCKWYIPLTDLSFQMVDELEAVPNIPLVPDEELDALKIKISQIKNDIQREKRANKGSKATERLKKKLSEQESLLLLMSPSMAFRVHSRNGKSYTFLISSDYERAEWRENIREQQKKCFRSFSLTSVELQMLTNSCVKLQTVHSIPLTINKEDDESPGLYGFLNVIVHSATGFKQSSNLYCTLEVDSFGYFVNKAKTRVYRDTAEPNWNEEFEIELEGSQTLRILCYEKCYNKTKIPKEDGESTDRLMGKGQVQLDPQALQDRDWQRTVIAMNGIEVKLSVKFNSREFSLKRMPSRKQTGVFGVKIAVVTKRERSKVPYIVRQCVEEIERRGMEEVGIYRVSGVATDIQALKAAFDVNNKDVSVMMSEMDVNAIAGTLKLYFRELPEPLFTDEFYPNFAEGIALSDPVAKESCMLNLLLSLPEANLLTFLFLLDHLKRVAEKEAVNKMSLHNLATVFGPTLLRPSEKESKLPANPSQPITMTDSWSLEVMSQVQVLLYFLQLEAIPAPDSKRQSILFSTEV
Chain of Tyrosine-protein kinase ABL1 (Homo sapiens) (P00519 whole entry, the tested form may be a part): as the sequence (P00519 whole entry, looked up, the tested form may be a part) above
Chain of Bcr/Abl fusion protein (Homo sapiens) (from UniProt P00519+P11274) (P11274 whole entry, looked up, the tested form may be a part): as the sequence (P11274 whole entry, looked up, the tested form may be a part) above
Chain of Bcr/Abl fusion protein (Homo sapiens) (from UniProt P00519+P11274) (P00519 whole entry, looked up, the tested form may be a part): as the sequence (P00519 whole entry, looked up, the tested form may be a part) above

Molecule	Activity [1] [pM]	Activity [2] [pmol]	Ratio [3]	Vmax / Km (10^-9 L min-1) [4]	Vmax / Km (10^-9 L min-1) [5]	further results
CC[C@H](C)[C@H](NC(=O)[C@H](CCC(=O)O)NC(=O)[C@H](Cc1ccc(O)cc1)NC(=O)[C@@H](NC(=O)[C@H](CC(=O)O)NC(=O)[C@@H](N)CC(=O)O)[C@@H](C)CC)C(=O)N[C@@H](Cc1ccc(O)cc1)C(=O)N[C@@H](Cc1c[nH]c2ccccc12)C(=O)O (H-DDIYEIYW-OH)	4.35	0.88	4.92			
CC[C@H](C)[C@H](NC(=O)[C@H](CCC(=O)O)NC(=O)[C@@H](N)CCC(=O)O)C(=O)N[C@@H](Cc1ccc(O)cc1)C(=O)N[C@@H](C)C(=O)N[C@@H](CCC(=O)O)C(=O)N[C@@H](Cc1c[nH]c2ccccc12)C(=O)N[C@@H](Cc1ccccc1)C(=O)O (H-EEIYAEWF-OH)	22.6	5.69	3.98	97.6	14	
CC[C@H](C)[C@H](NC(=O)[C@H](CCC(=O)O)NC(=O)[C@H](CC(=O)O)NC(=O)[C@H](Cc1ccc(O)cc1)NC(=O)[C@@H](NC(=O)[C@H](CCC(=O)O)NC(=O)[C@@H](N)CCC(=O)O)[C@@H](C)CC)C(=O)N[C@@H](Cc1ccc(O)cc1)C(=O)O (H-EEIYDEIY-OH)	14.4	4.18	3.44	17.1	3.75	
CC[C@H](C)[C@H](NC(=O)[C@H](CCC(=O)O)NC(=O)[C@@H](N)CCC(=O)O)C(=O)N[C@@H](Cc1ccc(O)cc1)C(=O)N[C@@H](CC(=O)O)C(=O)N[C@@H](Cc1ccc(O)cc1)C(=O)N[C@@H](C)C(=O)N[C@@H](Cc1ccc(O)cc1)C(=O)O (H-EEIYDYAY-OH)	22.4	6.73	3.33	56.4	7.46	
CC[C@H](C)[C@H](NC(=O)[C@H](CCC(=O)O)NC(=O)[C@@H](N)CCC(=O)O)C(=O)N[C@@H](Cc1ccc(O)cc1)C(=O)N[C@@H](CCC(=O)O)C(=O)N[C@@H](CCC(=O)O)C(=O)N1CCC[C@H]1C(=O)N[C@@H](Cc1ccc(O)cc1)C(=O)O (H-EEIYEEPY-OH)	25.5	7.56	3.38	98.8	12.1	
CC[C@H](C)[C@H](NC(=O)[C@H](CCC(=O)O)NC(=O)[C@@H](N)CCC(=O)O)C(=O)N[C@@H](Cc1ccc(O)cc1)C(=O)N[C@@H](Cc1ccc(O)cc1)C(=O)N[C@@H](Cc1ccc(O)cc1)C(=O)N[C@@H](CCC(=O)O)C(=O)N[C@@H](CC(C)C)C(=O)O (H-EEIYYYEL-OH)	4.48	1.27	3.52			
CC[C@H](C)[C@H](NC(=O)[C@H](CCC(=O)O)NC(=O)[C@@H](N)CCC(=O)O)C(=O)N[C@@H](Cc1ccc(O)cc1)C(=O)N[C@@H](Cc1ccc(O)cc1)C(=O)N[C@@H](Cc1ccc(O)cc1)C(=O)N[C@H](C(=O)N[C@@H](Cc1c[nH]cn1)C(=O)O)C(C)C (H-EEIYYYVH-OH)	17.7	3.37	5.24	32.9	2.38	
CC[C@H](C)[C@H](NC(=O)[C@H](Cc1c[nH]cn1)NC(=O)[C@@H](N)CCC(=O)O)C(=O)N[C@@H](Cc1ccc(O)cc1)C(=O)N[C@@H](Cc1c[nH]cn1)C(=O)N[C@@H](CCCN=C(N)N)C(=O)N[C@@H](Cc1c[nH]cn1)C(=O)N[C@@H](CCSC)C(=O)O (H-EHIYHRHM-OH)	2.73	0.33	8.27			
CC[C@H](C)[C@H](NC(=O)[C@H](CCCN=C(N)N)NC(=O)[C@@H](N)CCC(=O)O)C(=O)N[C@@H](Cc1ccc(O)cc1)C(=O)N[C@@H](C)C(=O)N[C@@H](CCCN=C(N)N)C(=O)N[C@H](C(=O)N[C@@H](CCCCN)C(=O)O)[C@@H](C)O (H-ERIYARTK-OH)	22.9	3.37	6.79	42.2	2.47	
CC[C@H](C)[C@H](NC(=O)[C@H](CCCN=C(N)N)NC(=O)[C@@H](N)CC(C)C)C(=O)N[C@@H](Cc1ccc(O)cc1)C(=O)N[C@@H](CCC(=O)O)C(=O)N[C@@H](CCCN=C(N)N)C(=O)N1CCC[C@H]1C(=O)N[C@@H](CCCN=C(N)N)C(=O)O (H-LRIYERPR-OH)	10.7	1.23	8.73			
CC[C@H](C)[C@H](NC(=O)[C@H](CCCN=C(N)N)NC(=O)[C@@H]1CCCN1)C(=O)N[C@@H](Cc1ccc(O)cc1)C(=O)N[C@@H](CC(=O)O)C(=O)N[C@H](C(=O)N1CCC[C@H]1C(=O)N[C@@H](Cc1ccc(O)cc1)C(=O)O)[C@@H](C)CC (H-PRIYDIPY-OH)	9.5	1.59	5.97			
CC[C@H](C)[C@H](NC(=O)[C@H](Cc1ccc(O)cc1)NC(=O)[C@H](CC(=O)O)NC(=O)[C@H](Cc1ccc(O)cc1)NC(=O)[C@@H](NC(=O)[C@H](CCC(=O)O)NC(=O)[C@@H](N)Cc1ccc(O)cc1)[C@@H](C)CC)C(=O)N[C@@H](CCC(=O)O)C(=O)O (H-YEIYDYIE-OH)	4.33	1.89	2.29			
CC[C@H](C)[C@H](NC(=O)[C@H](CCC(=O)O)NC(=O)[C@@H](N)Cc1ccc(O)cc1)C(=O)N[C@@H](Cc1ccc(O)cc1)C(=O)N[C@@H](CC(=O)O)C(=O)N[C@@H](Cc1ccc(O)cc1)C(=O)N[C@@H](Cc1ccc(O)cc1)C(=O)N[C@H](C(=O)O)C(C)C (H-YEIYDYYV-OH)	7.89	2.71	2.91			
Bcr/Abl fusion protein (Homo sapiens) (from UniProt P00519+P11274)						Vmax [6]: 5.27 pmol/min; Vmax [7]: 7.33 pmol/min; Vmax [8]: 10.5 pmol/min; Vmax [9]: 4.64 pmol/min; Vmax [10]: 7.5 pmol/min; Vmax [11]: 5.1 pmol/min; Km [12]: 54 µM; Km [13]: 130 µM; Km [14]: 106 µM; Km [15]: 141 µM; Km [16]: 439 µM; Km [17]: 121 µM
